Test results as given in PubChem BioAssay (NCI).
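Values below derive from 48-hour exposures of cells grown in 96-well plates, with endpoints linearly interpolated between the two concentrations bracketing the appropriate inhibition level. TGI is the concentration that stops growth completely.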

Experiments:
Assay in all cases: inhibition of tumour cell growth, NCI panel, 48 h
786-0 renal = tested on: 786-0 renal
A498 renal = tested on: A498 renal
A549 NSCLC = tested on: A549 NSCLC
ACHN renal = tested on: ACHN renal
BT-549 breast = tested on: BT-549 breast
CAKI-1 renal = tested on: CAKI-1 renal
CCRF-CEM leukemia = tested on: CCRF-CEM leukemia
COLO 205 colon = tested on: COLO 205 colon
DU-145 prostate = tested on: DU-145 prostate
EKVX NSCLC = tested on: EKVX NSCLC
HCC-2998 colon = tested on: HCC-2998 colon
HCT-116 colon = tested on: HCT-116 colon
HCT-15 colon = tested on: HCT-15 colon
HL-60(TB) leukemia = tested on: HL-60(TB) leukemia
HOP-62 NSCLC = tested on: HOP-62 NSCLC
HOP-92 NSCLC = tested on: HOP-92 NSCLC
HS 578T breast = tested on: HS 578T breast
HT29 colon = tested on: HT29 colon
IGROV1 ovarian = tested on: IGROV1 ovarian
K-562 leukemia = tested on: K-562 leukemia
KM12 colon = tested on: KM12 colon
LOX IMVI melanoma = tested on: LOX IMVI melanoma
M14 melanoma = tested on: M14 melanoma
MALME-3M melanoma = tested on: MALME-3M melanoma
MCF7 breast = tested on: MCF7 breast
MDA-MB-231 breast = tested on: MDA-MB-231 breast
MDA-MB-435 = tested on: MDA-MB-435
MDA-N = tested on: MDA-N
MOLT-4 leukemia = tested on: MOLT-4 leukemia
NCI-H226 lung = tested on: NCI-H226 lung
NCI-H23 lung = tested on: NCI-H23 lung
NCI-H460 lung = tested on: NCI-H460 lung
NCI-H522 lung = tested on: NCI-H522 lung
NCI/ADR-RES ovarian = tested on: NCI/ADR-RES ovarian
OVCAR-3 ovarian = tested on: OVCAR-3 ovarian
OVCAR-4 ovarian = tested on: OVCAR-4 ovarian
OVCAR-5 ovarian = tested on: OVCAR-5 ovarian
OVCAR-8 ovarian = tested on: OVCAR-8 ovarian
PC-3 prostate = tested on: PC-3 prostate
RPMI-8226 leukemia = tested on: RPMI-8226 leukemia
RXF 393 renal = tested on: RXF 393 renal
SF-268 CNS = tested on: SF-268 CNS
SF-295 CNS = tested on: SF-295 CNS
SF-539 CNS = tested on: SF-539 CNS
SK-MEL-2 melanoma = tested on: SK-MEL-2 melanoma
SK-MEL-28 melanoma = tested on: SK-MEL-28 melanoma
SK-MEL-5 melanoma = tested on: SK-MEL-5 melanoma
SN12C renal = tested on: SN12C renal
SNB-19 CNS = tested on: SNB-19 CNS
SNB-75 CNS = tested on: SNB-75 CNS
SR leukemia = tested on: SR leukemia
SW-620 colon = tested on: SW-620 colon
T-47D breast = tested on: T-47D breast
TK-10 renal = tested on: TK-10 renal
U251 CNS = tested on: U251 CNS
UACC-257 melanoma = tested on: UACC-257 melanoma
UACC-62 melanoma = tested on: UACC-62 melanoma
UO-31 renal = tested on: UO-31 renal
SK-OV-3 ovarian = tested on: SK-OV-3 ovarian

SMILES: COC(=O)c1ccc(/C=C/c2cc(O)ccc2O)cc1
- TGI (786-0 renal): 16.9 µM
- TGI (A498 renal): 33 µM
- TGI (A549 NSCLC): > 100 µM
- TGI (ACHN renal): 14.1 µM
- TGI (BT-549 breast): 3.49 µM
- TGI (CAKI-1 renal): 7.5 µM
- TGI (CCRF-CEM leukemia): 719 nM
- TGI (COLO 205 colon): 22.8 µM
- TGI (DU-145 prostate): > 100 µM
- TGI (EKVX NSCLC): 9.66 µM
- TGI (HCC-2998 colon): > 59.6 µM
- TGI (HCT-116 colon): 18.9 µM
- TGI (HCT-15 colon): 12.2 µM
- TGI (HL-60(TB) leukemia): 1060 nM
- TGI (HOP-62 NSCLC): > 69.3 µM
- TGI (HOP-92 NSCLC): 7.69 µM
- TGI (HS 578T breast): > 100 µM
- TGI (HT29 colon): > 100 µM
- TGI (IGROV1 ovarian): 9.42 µM
- TGI (K-562 leukemia): 4.38 µM
- TGI (KM12 colon): 28 µM
- TGI (LOX IMVI melanoma): 9.39 µM
- TGI (M14 melanoma): 43 µM
- TGI (MALME-3M melanoma): 5.64 µM
- TGI (MCF7 breast): 21.8 µM
- TGI (MDA-MB-231 breast): 24 µM
- TGI (MDA-MB-435): 13.5 µM
- TGI (MDA-N): > 46.7 µM
- TGI (MOLT-4 leukemia): 927 nM
- TGI (NCI-H226 lung): > 27 µM
- TGI (NCI-H23 lung): > 38.5 µM
- TGI (NCI-H460 lung): 25.9 µM
- TGI (NCI-H522 lung): 356 nM
- TGI (NCI/ADR-RES ovarian): 7.72 µM
- TGI (OVCAR-3 ovarian): 6.86 µM
- TGI (OVCAR-4 ovarian): 15.9 µM
- TGI (OVCAR-5 ovarian): 70.3 µM
- TGI (OVCAR-8 ovarian): 18.4 µM
- TGI (PC-3 prostate): 22.2 µM
- TGI (RPMI-8226 leukemia): 4.14 µM
- TGI (RXF 393 renal): 6.59 µM
- TGI (SF-268 CNS): 8.41 µM
- TGI (SF-295 CNS): > 100 µM
- TGI (SF-539 CNS): 6.65 µM
- TGI (SK-MEL-2 melanoma): > 31.6 µM
- TGI (SK-MEL-28 melanoma): 43.4 µM
- TGI (SK-MEL-5 melanoma): > 25.5 µM
- TGI (SN12C renal): 18.8 µM
- TGI (SNB-19 CNS): > 100 µM
- TGI (SNB-75 CNS): 68.5 µM
- TGI (SR leukemia): 3.69 µM
- TGI (SW-620 colon): 18.6 µM
- TGI (T-47D breast): 5.32 µM
- TGI (TK-10 renal): 45.3 µM
- TGI (U251 CNS): 8.44 µM
- TGI (UACC-257 melanoma): 22.5 µM
- TGI (UACC-62 melanoma): 17.4 µM
- TGI (UO-31 renal): 3.67 µM

SMILES: O=c1oc2ccc3ccccc3c2cc1-c1nc2ccccc2s1
- TGI (786-0 renal): > 100 µM
- TGI (A498 renal): > 100 µM
- TGI (A549 NSCLC): > 100 µM
- TGI (ACHN renal): > 100 µM
- TGI (BT-549 breast): > 100 µM
- TGI (CAKI-1 renal): > 100 µM
- TGI (CCRF-CEM leukemia): > 100000 nM
- TGI (COLO 205 colon): > 100 µM
- TGI (DU-145 prostate): > 100 µM
- TGI (EKVX NSCLC): > 100 µM
- TGI (HCC-2998 colon): > 100 µM
- TGI (HCT-116 colon): > 100 µM
- TGI (HCT-15 colon): > 100 µM
- TGI (HL-60(TB) leukemia): > 100000 nM
- TGI (HOP-62 NSCLC): > 100 µM
- TGI (HOP-92 NSCLC): > 100 µM
- TGI (HS 578T breast): > 100 µM
- TGI (HT29 colon): > 100 µM
- TGI (IGROV1 ovarian): > 100 µM
- TGI (K-562 leukemia): > 77.6 µM
- TGI (KM12 colon): > 100 µM
- TGI (LOX IMVI melanoma): > 100 µM
- TGI (M14 melanoma): > 100 µM
- TGI (MALME-3M melanoma): > 100 µM
- TGI (MCF7 breast): > 24.4 µM
- TGI (MDA-MB-231 breast): > 100 µM
- TGI (MDA-MB-435): > 100 µM
- TGI (MDA-N): > 100 µM
- TGI (MOLT-4 leukemia): > 21600 nM
- TGI (NCI-H226 lung): > 100 µM
- TGI (NCI-H23 lung): > 100 µM
- TGI (NCI-H460 lung): > 100 µM
- TGI (NCI-H522 lung): > 100000 nM
- TGI (NCI/ADR-RES ovarian): > 100 µM
- TGI (OVCAR-3 ovarian): > 100 µM
- TGI (OVCAR-4 ovarian): > 100 µM
- TGI (OVCAR-5 ovarian): > 100 µM
- TGI (OVCAR-8 ovarian): > 100 µM
- TGI (PC-3 prostate): > 100 µM
- TGI (RPMI-8226 leukemia): > 32.8 µM
- TGI (RXF 393 renal): > 100 µM
- TGI (SF-268 CNS): > 100 µM
- TGI (SF-295 CNS): > 100 µM
- TGI (SF-539 CNS): > 100 µM
- TGI (SK-MEL-2 melanoma): > 100 µM
- TGI (SK-MEL-28 melanoma): > 100 µM
- TGI (SK-MEL-5 melanoma): > 100 µM
- TGI (SK-OV-3 ovarian): > 100 µM
- TGI (SN12C renal): > 100 µM
- TGI (SNB-19 CNS): > 26.9 µM
- TGI (SNB-75 CNS): > 100 µM
- TGI (SR leukemia): > 21.5 µM
- TGI (SW-620 colon): > 100 µM
- TGI (T-47D breast): > 100 µM
- TGI (TK-10 renal): > 100 µM
- TGI (U251 CNS): > 100 µM
- TGI (UACC-257 melanoma): > 100 µM
- TGI (UACC-62 melanoma): > 100 µM
- TGI (UO-31 renal): > 100 µM
